Results taken from US20260055112A1, “CRYSTALLINE FORM OF PYRAZOLOPYRIMIDINE ESTER COMPOUND AND METHODS OF PREPARING THE SAME” (Shanghai Maius Pharmaceutical Co. Ltd., priority 2022, published 2026).
“Also recorded” adds a separate entry of the source.

How the values were obtained:
[1] = among the pyrazolopyrimidine ester prodrugs of CN 202111131059.0; cited from earlier work
[2] = Stability study: change in purity after 10 days storage under forced degradation conditions; assay type: physicochemical; details: for Purity, 25° C. + 92.5% RH (Day 10): stored at 25° C. and 92.5% RH for 10 days; for Purity (Day 10): stored for 10 days
Experimental: Samples of the amorphous and crystalline (Form I) compound of formula (I) were stored under different conditions: at 40° C. for 10 days; […]; at 25° C. and 92.5% RH (relative humidity) for 10 days; at 60° C. and 75% RH for 10 days; in light for 10 days; and at room temperature for 10 days.

Row | Structure (SMILES) | Rate of hydrolysis in blood [1] | Stability in general (in words) ([2]; amorphous product, heat and moisture) | Degradation observed (in words) ([2]; storage 10 days at 40° C.) | Degradation observed (in words) ([2]; storage 10 days at 40° C., listed as amorphous sample) | Degradation observed (in words) ([2]; storage 10 days at 60° C. and 75% RH) | Purity, 25° C. + 92.5% RH (Day 10) [2] | Purity (Day 10) [2] | Stability (in words) ([2]; 10 days of storage at room temperature and in light) | Degree of degradation compared with the amorphous form ([2]; several forced degradation conditions)
1 | C=CC(=O)N1CCC[C@@H](n2nc(-c3ccc(Oc4ccccc4)cc3)c3c(NC(=O)OCCCC)ncnc32)C1 [formula (I), 1-[(3R)-3-[4-(butoxycarbonyl)-amino-3-(4-phenoxyphenyl)-1H-pyrazolo[3,4-d]pyrimidin-1-yl]-1-piperidinyl]-2-propen-1-one] | hydrolyzed most rapidly |  |  |  |  |  |  |  | 
2 | C=CC(=O)N1CCC[C@@H](n2nc(-c3ccc(Oc4ccccc4)cc3)c3c(NC(=O)OCCCC)ncnc32)C1 [Amorphous, 1-[(3R)-3-[4-(butoxycarbonyl)-amino-3-(4-phenoxyphenyl)-1H-pyrazolo[3,4-d]pyrimidin-1-yl]-1-piperidinyl]-2-propen-1-one] |  | poor stability | Significant degradation | Noticeable degradation | almost complete degradation | 98.00% | 0% |  | 
3 | C=CC(=O)N1CCC[C@@H](n2nc(-c3ccc(Oc4ccccc4)cc3)c3c(NC(=O)OCCCC)ncnc32)C1 [Form I, 1-[(3R)-3-[4-(butoxycarbonyl)-amino-3-(4-phenoxyphenyl)-1H-pyrazolo[3,4-d]pyrimidin-1-yl]-1-piperidinyl]-2-propen-1-one] |  |  |  |  |  | 98.63% | 2.19% | highly stable; also recorded: very stable | lower degrees of degradation than the amorphous compound; also recorded: lower degree of degradation than the amorphous form
